Consider one compound from patent US11160788B2, “Caspase-1 inhibition and uses thereof for prevention and treatment of neurological conditions” (priority 2016, dated 2021).

Common to all, as to assay type: in vivo, mouse
Experiment [1] concerns J20 mice. Description: Open field hyperactivity, treatment of symptomatic J20 mice. The note with it: for hyperactivity in open field: Treatment 2; for hyperactivity, distance travelled in open field: 50 mg/kg IP. From the text:
FIG. 8: VX-765 treatment restores cognitive function in J20 mice. (a) Experimental paradigm. Intraperitoneal vehicle-injected wild type (WT+Vehicle; n=13) and J20 mice (J20+Vehicle: n=9), and VX-765-injected J20 mice (J20+VX-765: n=9) mice were behaviourally assessed at 5 different time-points: baseline before treatment (baseline untreated J20 were grouped together; n=18), after 3 IP injections/wk of VX-765 or vehicle (Treatment 1), after 6 additional injections over 2 weeks (Treatment 2), after 4-week Washout period, and after an additional 3 injections in one week (Treatment 3). Mice were sacrificed at 8 months of age after Treatment 3 (b) NOR Discrimination index (Treatment main effect, F(2,20)=85.8, p<0.0001; Time main effect, F(4,80)=4.188, p=0.0039; Treatment×Time interaction, F(8,80)=[…], two-way repeated-measures ANOVA, Dunnett's post-hoc compared to J20+Vehicle). (c) Distance traveled during Open Field task. Data analyzed by repeated measures two-way ANOVA (Treatment main effect, F(2,19)=11.47, p=0.0005; Treatment×Time interaction, F(8,76)=5.69, p<0.0001, two-way repeated-measures ANOVA, Dunnett's post-hoc compared to J20+Vehicle). (d-i) Barnes maze analysis. Learning acquisition (d,g), probe test primary latency and errors (e,h), and target hole preference (f,i); # of pokes of each hole labelled +1 to +9 to the right or −1 to −9 to the left of the target hole during the probe) after Treatment 2 (d-f) and Washout (g-i). Probe tests were analyzed (Treatment 2 primary latency, F(2,52)=5.879, p=0.0050; Treatment 2 primary errors, F(2,52)=9.998, p=0.0002; Washout primary latency, F(2,22)=4.076, p=0.0312; Washout primary errors, F(2,22)=10.84, p=0.0005, ANOVA, Tukey's post-hoc). * p<0.05, ***p<0.001, ****p<0.0001.
Anxiety and hyperactivity are monitored in an open-field paradigm, episodic memory with the NOR, spatial memory with the Barnes maze, and short or long term working memory with the Y maze before and after treatments. Repeated measures are acceptable for the NOR, Barnes and Y maze^2-4. […]

The test system of experiment [2] is J20 mice. Briefly: ELISA of II-1β and other cytokines, treated symptomatic J20 mice. From the text: FIG. 10: VX-765 reverses neuroinflammation in J20 mice. (a) Iba-1 positive microglia immunohistographs in the stratum lacunosum molecular area of the hippocampus and S1 of cortex (Scale bar=50 μm). (b) Stereological quantification of Iba-1^+ microglia for WT+Vehicle (n=6), J20+Vehicle (n=5), and J20+VX-765 (n=4) in the hippocampus from the pyramidal cell layer to the stratum lacunosum molecular layer (F(2,11)=58, p<0.0001) and cortex (F(2,11)=39.95, p<0.0001, ANOVA, Dunnett's post-hoc compared to J20+Vehicle, ***p<0.001). (c) Average percentage distribution of morphological microglial subtypes 1 (black (lowermost) bar), 2 (light grey bar), 3 (dark grey bar) and 4 (black (uppermost) bar). (d) II1-β pg/mg levels measured by ELISA in pre-treated J20 at 5 months of age and in treated WT and J20 8 months of age. (e) Astroglial GFAP^+ immunohistographs.
(§1) FIG. 18: ELISA measures of cytokines in vehicle-treated WT and J20 mice and VX-765-treated J20 mice. (a) Plasma levels of II-1β in mice after T3. (b) Cytokine levels in vehicle-treated WT and J20 and in VX-765-treated J20 brain hippocampi and cortex. (c) GFAP immunostaining density in vehicle-treated WT (n=6) and J20 (n=5) and in VX-765-treated J20 (n=4) brain hippocampi (F(2,12)=5.234, p=0.0232, ANOVA, Dunnett's post-hoc compared to WT+Vehicle, *p<0.05) and cortex. (d) Western blots and quantitative analyses of GFAP in vehicle-treated WT and J20 and in VX-765-treated J20 brain hippocampi and cortex.
(§2) To assess AD-like pathology, immunohistochemical analyses were performed to detect amyloid deposition (anti-AβF25276)^5,6, microglial (Iba1) activation^7, astrogliosis (GFAP), synaptophysin protein levels on coronal brain sections. Multiplex MSD ELISA was used to assess Aβ levels and 38,40, and 42 subtypes, and II-1β brain levels. RT-PCR was used to assess levels of human APP^Sw/Ind.
In general terms: An ELISA detects its analyte on a solid surface through an enzyme-linked reagent.

Experiment [3] relates to J20 mice. Briefly: Open field, preventive treatment of pre-symptomatic J20 mice. Here is the method: FIG. 21: Open-field assessment to assess hyperactivity in J20 mice. Mice were treated with vehicle (WT and J20) or 50 mg/kg VX-765 (J20) at 2 months of age for 1 month (3 injections per week×4 weeks=12 injections). Hyperactivity was assessed by measuring the distance travelled (a), the number of quadrant entries (b), and the % time moving (c), while anxiety was assessed by the % time spent in periphery (d).
Studies are done on 8 (pre-symptomatic) week old J20 and littermate WT controls injected with 50 mg/Kg VX-765 or vehicle. The 8 week old mice are injected for 4 weeks (3 injections per week) and monitored for memory deficits at 16 weeks of age and every 4 weeks thereafter until the mice reach 8 months of age. VX-765 delays the onset of cognitive deficits by at least 5 months in the J20 mouse.
We directly tested whether pre-symptomatic inhibition of inflammation in a mouse genetic model of Alzheimer disease can stem the progression of memory and behavioral deficits, and Alzheimer disease-like pathology. The J20 amyloid precursor protein Swedish/Indiana mutant mouse was treated at 2 months of age for a one month period with 50 mg/Kg Caspase-1 inhibitor VX-765 (FIG. 22a).

Experiment [4] deals with J20 mice. Briefly: GFAP astrogliosis, treated symptomatic J20 mice brains. The note with it: 50 mg/kg.
Text: as §1, §2

Entries after “also recorded” stand apart in the source; their conditions may differ.

Consider `CCO[C@@H]1OC(=O)C[C@@H]1NC(=O)[C@@H]1CCCN1C(=O)[C@@H](NC(=O)c1ccc(N)c(Cl)c1)C(C)(C)C` [VX-765, (S)-1-((S)-2-{[1-(4-amino-3-chloro-phenyl)-methanoyl]-amino}-3,3-dimethyl-butanoyl)-pyrrolidine-2-carboxylic acid ((2R,3S)-2-ethoxy-5-oxo-tetrahydro-furan-3-yl)-amide], for which the “hyperactivity in open field” value in the experiment on J20 mice [1] (10 mg/kg) is listed as “non-significant improvement at T2 with 25, but not 10”; with J20 mice [1] (25 mg/kg), “non-significant improvement”. Further, the entries for the “hyperactivity, distance travelled in open field” value in the experiment with J20 mice [1] (Treatment 2 (3 weeks of treatment)), with J20 mice [1] (Treatment 3) and in the experiment with J20 mice [1] (after washout) were “attenuated only after 3 weeks of treatment; also recorded: attenuated by VX-765 only after T2”, “significantly reduced after T3” and “reappeared after WO”, respectively. Moreover, the “TNFα protein level in hippocampi” value with J20 mice [2] is recorded as “returned to normal”. In the experiment with J20 mice [2] (50 mg/kg, after Treatment 3), the “II-1β level in hippocampus” value is “reduced after VX-765 treatment”. The “II-1β level in plasma” value in the experiment with J20 mice [2] (after Treatment 3) is listed as “No changes were seen”. In the experiment on J20 mice [2] (brain hippocampi and cortex), the “other inflammatory protein levels (TNF-α, KC-GRO, IFN-γ)” value is reported as “No significant difference”. The “open field hyperactivity (distance travelled, quadrant entries)” value in the experiment on J20 mice [3] (4 months of age (4 week washout)) is “normal behavior at 4 months of age; also recorded: behave as the vehicle-treated WT mice”. In the experiment on J20 mice [3] (5 months of age (8 week washout) and thereafter), the open field hyperactivity result was “hyperactivity returned by 5 months of age; also recorded: lost at the 8 week washout assessment and thereafter”. Besides, in the experiment with J20 mice [3] (8 week to 20 week washout), the “% time of movement” value is recorded as “did not alter”. Further, in the experiment with J20 mice [4] (after Treatment 3), the “GFAP astrogliosis in cortex and hippocampus” value is on record as “almost returned to WT levels”. Further, in the experiment with J20 mice [4] (densitometry, 12 injections), the GFAP in cortex result is “reduced in VX-765-treated J20 cortex, but the data did not reach statistical significance”.
